Experimental data taken from ChEMBL document CHEMBL1201862, “PubChem BioAssay data set” (2004).
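Results reflect a 48-hour exposure of cells in 96-well plates to compound at five concentrations. Here, GI50 denotes the concentration required for 50% inhibition of growth.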 The source made the active and inactive calls. Cut-off read from the data, not from the text of the source: active = GI50 up to about 1.1 µM and inactive = higher.

How the values were obtained:
Test in all cases: DTP human tumour cell line panel, 48 h
NCI-H226 = tested on: NCI-H226
SR = tested on: SR
HT-29 = tested on: HT-29
HCT-15 = tested on: HCT-15
A549 = tested on: A549
HL-60 = tested on: HL-60
CCRF-CEM = tested on: CCRF-CEM
SNB-75 = tested on: SNB-75
OVCAR-8 = tested on: OVCAR-8
SF-539 = tested on: SF-539
UO-31 = tested on: UO-31
OVCAR-4 = tested on: OVCAR-4
Malme-3M = tested on: Malme-3M
IGROV-1 = tested on: IGROV-1
OVCAR-3 = tested on: OVCAR-3
OVCAR-5 = tested on: OVCAR-5
SK-MEL-2 = tested on: SK-MEL-2
BT-549 = tested on: BT-549
U-251 = tested on: U-251
SNB-19 = tested on: SNB-19
COLO 205 = tested on: COLO 205
HOP-62 = tested on: HOP-62
EKVX = tested on: EKVX
PC-3 = tested on: PC-3
RPMI-8226 = tested on: RPMI-8226
HCT-116 = tested on: HCT-116
UACC-257 = tested on: UACC-257
MDA-MB-231 = tested on: MDA-MB-231
TK-10 = tested on: TK-10
SF-295 = tested on: SF-295
SF-268 = tested on: SF-268
MOLT-4 = tested on: MOLT-4
HOP-92 = tested on: HOP-92
SK-MEL-5 = tested on: SK-MEL-5
CAKI-1 = tested on: CAKI-1
T47D = tested on: T47D
DU-145 = tested on: DU-145
MDA-MB-435 = tested on: MDA-MB-435
SK-MEL-28 = tested on: SK-MEL-28
NCI-H23 = tested on: NCI-H23
UACC-62 = tested on: UACC-62
A498 = tested on: A498
ACHN = tested on: ACHN
M14 = tested on: M14
NCI/ADR-RES = tested on: NCI/ADR-RES
SN12C = tested on: SN12C
SK-OV-3 = tested on: SK-OV-3
NCI-H460 = tested on: NCI-H460
K562 = tested on: K562
KM12 = tested on: KM12
Hs-578T = tested on: Hs-578T
786-0 = tested on: 786-0
HCC 2998 = tested on: HCC 2998
MCF7 = tested on: MCF7
RXF 393 = tested on: RXF 393
NCI-H522 = tested on: NCI-H522
SW-620 = tested on: SW-620
MDA-N = tested on: MDA-N
LOX IMVI = tested on: LOX IMVI

CCOC(=O)C(C)c1nc2cc(N3CCOCC3)c(F)cc2[nH]c1=O (stereo unspecified)
GI50 (NCI-H226): > 100 µM (inactive) | GI50 (SR): > 100 µM (inactive) | GI50 (HT-29): > 100 µM (inactive) | GI50 (HCT-15): > 100 µM | GI50 (A549): > 100 µM (inactive) | GI50 (HL-60): > 100 µM (inactive) | GI50 (CCRF-CEM): > 100 µM (inactive) | GI50 (SNB-75): > 100 µM (inactive) | GI50 (OVCAR-8): > 100 µM (inactive) | GI50 (SF-539): > 100 µM (inactive) | GI50 (UO-31): > 100 µM (inactive) | GI50 (OVCAR-4): > 100 µM (inactive) | GI50 (Malme-3M): > 100 µM (inactive) | GI50 (IGROV-1): > 100 µM (inactive) | GI50 (OVCAR-3): > 100 µM (inactive) | GI50 (OVCAR-5): > 100 µM (inactive) | GI50 (SK-MEL-2): > 100 µM (inactive) | GI50 (BT-549): > 100 µM (inactive) | GI50 (U-251): > 100 µM (inactive) | GI50 (SNB-19): > 100 µM (inactive) | GI50 (COLO 205): > 100 µM (inactive) | GI50 (HOP-62): > 100 µM (inactive) | GI50 (EKVX): > 100 µM (inactive) | GI50 (PC-3): > 100 µM (inactive) | GI50 (RPMI-8226): > 100 µM (inactive) | GI50 (HCT-116): > 100 µM (inactive) | GI50 (UACC-257): > 100 µM (inactive) | GI50 (MDA-MB-231): > 100 µM (inactive) | GI50 (TK-10): > 100 µM (inactive) | GI50 (SF-295): > 100 µM (inactive) | GI50 (SF-268): > 100 µM (inactive) | GI50 (MOLT-4): > 100 µM (inactive) | GI50 (HOP-92): > 100 µM (inactive) | GI50 (SK-MEL-5): > 100 µM (inactive) | GI50 (CAKI-1): > 100 µM (inactive) | GI50 (T47D): > 100 µM (inactive) | GI50 (DU-145): > 100 µM (inactive) | GI50 (MDA-MB-435): > 100 µM (inactive) | GI50 (SK-MEL-28): > 100 µM (inactive) | GI50 (NCI-H23): > 100 µM (inactive) | GI50 (UACC-62): > 100 µM (inactive) | GI50 (A498): > 100 µM (inactive) | GI50 (ACHN): > 100 µM (inactive) | GI50 (M14): > 100 µM (inactive) | GI50 (NCI/ADR-RES): > 100 µM (inactive) | GI50 (SN12C): > 100 µM (inactive) | GI50 (SK-OV-3): > 100 µM (inactive) | GI50 (NCI-H460): > 100 µM (inactive) | GI50 (K562): > 100 µM (inactive) | GI50 (KM12): > 100 µM (inactive) | GI50 (Hs-578T): > 100 µM (inactive) | GI50 (786-0): > 100 µM (inactive) | GI50 (HCC 2998): > 100 µM (inactive) | GI50 (MCF7): > 100 µM (inactive) | GI50 (RXF 393): > 100 µM (inactive) | GI50 (NCI-H522): 53.1 µM (inactive) | GI50 (SW-620): > 100 µM (inactive) | GI50 (MDA-N): > 100 µM (inactive)

Cc1ccc(C2=CC(=O)/C(=C\C(=O)c3ccc(Br)cc3)O2)c(C)c1
GI50 (NCI-H226): 10.9 µM (inactive) | GI50 (SR): 2.36 µM (inactive) | GI50 (HT-29): 7.89 µM (inactive) | GI50 (HCT-15): 12.2 µM | GI50 (A549): 18.7 µM (inactive) | GI50 (HL-60): 3.92 µM (inactive) | GI50 (CCRF-CEM): 2.69 µM (inactive) | GI50 (SNB-75): 7.85 µM (inactive) | GI50 (OVCAR-8): 6.58 µM (inactive) | GI50 (SF-539): 31.4 µM (inactive) | GI50 (UO-31): 9.02 µM (inactive) | GI50 (OVCAR-4): 9.42 µM (inactive) | GI50 (Malme-3M): 10.5 µM (inactive) | GI50 (IGROV-1): 18.4 µM (inactive) | GI50 (OVCAR-3): 5.3 µM (inactive) | GI50 (OVCAR-5): 23.7 µM (inactive) | GI50 (SK-MEL-2): 49.1 µM (inactive) | GI50 (BT-549): 7.03 µM (inactive) | GI50 (U-251): 18 µM (inactive) | GI50 (SNB-19): 18.7 µM (inactive) | GI50 (COLO 205): 3.85 µM (inactive) | GI50 (HOP-62): 42.4 µM (inactive) | GI50 (EKVX): 28.6 µM (inactive) | GI50 (PC-3): 5.35 µM (inactive) | GI50 (RPMI-8226): 2.87 µM (inactive) | GI50 (HCT-116): 7.64 µM (inactive) | GI50 (UACC-257): 16.9 µM (inactive) | GI50 (MDA-MB-231): 9.31 µM (inactive) | GI50 (TK-10): 3.83 µM (inactive) | GI50 (SF-295): 26 µM (inactive) | GI50 (SF-268): 16.2 µM (inactive) | GI50 (MOLT-4): 3.52 µM (inactive) | GI50 (HOP-92): 6.4 µM (inactive) | GI50 (SK-MEL-5): 14.5 µM (inactive) | GI50 (CAKI-1): 3.04 µM (inactive) | GI50 (T47D): 8.79 µM (inactive) | GI50 (DU-145): 30.4 µM (inactive) | GI50 (LOX IMVI): 3.78 µM (inactive) | GI50 (MDA-MB-435): 13.6 µM (inactive) | GI50 (SK-MEL-28): 17.2 µM (inactive) | GI50 (NCI-H23): 26.6 µM (inactive) | GI50 (UACC-62): 9.48 µM (inactive) | GI50 (A498): 19.9 µM (inactive) | GI50 (ACHN): 4.57 µM (inactive) | GI50 (M14): 11.6 µM (inactive) | GI50 (NCI/ADR-RES): 7.91 µM (inactive) | GI50 (SN12C): 13.2 µM (inactive) | GI50 (SK-OV-3): 7.74 µM (inactive) | GI50 (NCI-H460): 26.5 µM (inactive) | GI50 (K562): 3.4 µM (inactive) | GI50 (KM12): 20.4 µM (inactive) | GI50 (Hs-578T): 18.1 µM (inactive) | GI50 (786-0): 8.34 µM (inactive) | GI50 (HCC 2998): 12.1 µM (inactive) | GI50 (MCF7): 5.33 µM (inactive) | GI50 (RXF 393): 4.58 µM (inactive) | GI50 (NCI-H522): 1.69 µM (inactive) | GI50 (MDA-N): 6.11 µM (inactive)
